Paper PMC6068282, “In Silico Discovery of Plant-Origin Natural Product Inhibitors of Tumor Necrosis Factor (TNF) and Receptor Activator of NF-κB Ligand (RANKL)” (Frontiers in Pharmacology, 2018)

Biological target: T1, TNF / human TNF (TNF/TNFR1 ELISA) (Homo sapiens, UniProt P01375)
T1 construct: recombinant human TNF (soluble; biologically active homotrimer); with Tumor necrosis factor receptor superfamily member 1A
Test: ELISA, TNF binding to TNFR1

T1 sequence (P01375 77-233): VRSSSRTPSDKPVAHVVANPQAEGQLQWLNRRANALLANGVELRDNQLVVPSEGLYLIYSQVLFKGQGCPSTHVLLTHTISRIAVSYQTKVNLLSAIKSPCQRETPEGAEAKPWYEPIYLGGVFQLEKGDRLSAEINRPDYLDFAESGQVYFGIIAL

Structure (SMILES) | IC50
Oc1ccc([C@@H]2c3c(O)cc4c(c3[C@H]3[C@H](c5ccc(O)cc5)c5c(O)cc6c(c5[C@@H]23)[C@@H](c2cc(O)cc(O)c2)[C@H](c2ccc(O)cc2)O6)[C@@H](c2cc(O)cc(O)c2)[C@H](c2ccc(O)cc2)O4)cc1 [A11, (1R,2R,6R,6aR,7R,8R,12R,12aR)-1,7-Bis(3,5-dihydroxyphenyl)-2,6,8,12-tetrakis(4-hydroxyphenyl)-1,2,6,6a,7,8,12,12a-octahydrofuro[2″,3″:6′,7′]indeno[1′,2′:2,3]indeno [5,4-b]furan-5,11-diol] | 3.3 ± 0.9 µM
C[C@@H]1O[C@@H](Oc2c(-c3ccc(O)cc3)oc3cc(O)cc(O)c3c2=O)[C@H](O[C@@H]2O[C@H](COC(=O)/C=C/c3ccc(O)cc3)[C@@H](O)[C@H](O)[C@H]2O)[C@H](O)[C@H]1O [A25, [(2R,3S,4S,5R,6S)-6-[(2S,3R,4R,5R,6S)-2-[5,7-dihydroxy-2-(4-hydroxyphenyl)-4-oxochromen-3-yl]oxy-4,5-dihydroxy-6-methyloxan-3-yl]oxy-3,4,5-trihydroxyoxan-2-yl]methyl(E)-3-(4-hydroxyphenyl)prop-2-enoate] | 4.1 ± 1.7 µM
